Results taken from ChEMBL document CHEMBL1201862, “PubChem BioAssay data set” (2004).
Structures can show the parent of a compound that is named as a salt. The source made the active and inactive calls.

How the values were obtained:
Beta-galactosidase = Beta-galactosidase (Escherichia coli, UniProt Q8VNN2); test: detection-enzyme interference by beta-gal modulators – biochemical, E. coli enzyme, set 3, artefact control for CCR6 antagonist project, dose response (AID 504712); type: functional
[1] = biological target: Heat shock protein HSP 90-alpha (Homo sapiens, UniProt P07900); type: functional, organism-based
Fatty acid synthase [2] = biological target: T1, Fatty acid synthase (Homo sapiens, UniProt P49327); test: inhibition of human FAS-TE enzyme activity – biochemical, endpoint fluorescence intensity, uHTS hits, dose response (AID 624327); type: functional;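 note: fluorescence from hydrolysis of an O-methyl fluorescein acyl ester substrate by the enzyme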
Fatty acid synthase [3] = biological target: T1, Fatty acid synthase; test: inhibition of human FAS-TE enzyme activity – biochemical, kinetic fluorescence intensity, dose response (AID 624326); type: functional;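 note: rate of fluorescence rise from hydrolysis of a fluorogenic O-methyl fluorescein ester substrate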
Aspartyl aminopeptidase = biological target: T2, Aspartyl aminopeptidase (Plasmodium falciparum 3D7, UniProt Q8I2J3)
T2 sequence (Q8I2J3 whole entry): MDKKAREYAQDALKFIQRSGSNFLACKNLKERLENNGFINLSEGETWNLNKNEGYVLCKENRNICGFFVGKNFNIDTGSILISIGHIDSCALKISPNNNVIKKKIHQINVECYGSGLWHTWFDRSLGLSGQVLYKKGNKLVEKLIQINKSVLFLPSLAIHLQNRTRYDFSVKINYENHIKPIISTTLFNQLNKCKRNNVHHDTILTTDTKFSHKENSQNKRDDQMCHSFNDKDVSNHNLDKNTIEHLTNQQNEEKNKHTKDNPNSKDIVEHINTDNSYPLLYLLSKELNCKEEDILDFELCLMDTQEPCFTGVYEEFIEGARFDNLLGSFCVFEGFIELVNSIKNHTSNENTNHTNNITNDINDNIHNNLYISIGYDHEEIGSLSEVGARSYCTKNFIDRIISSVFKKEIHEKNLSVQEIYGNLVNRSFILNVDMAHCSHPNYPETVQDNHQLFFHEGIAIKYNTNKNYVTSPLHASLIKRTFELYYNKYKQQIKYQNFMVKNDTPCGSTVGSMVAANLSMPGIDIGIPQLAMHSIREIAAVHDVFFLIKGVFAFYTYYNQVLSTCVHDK

Procathepsin L = Procathepsin L (Homo sapiens, UniProt P07711)
[4] = biological target: FAD-linked sulfhydryl oxidase ALR (Homo sapiens, UniProt P55789); test: ALR-catalysed DTT oxidation blockers – biochemical, H2O2 detection, luminescence, cherry-pick, dose response (AID 493248)
[5] = HEK-293T cell viability reduction – luminescence, B-cell screen hits, cytotoxicity control for BCR NF-kB inhibitor project, dose response (AID 489021); type: functional, cell-based;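 note: HEK-293T cells carrying an NF-kB luciferase reporter; cells exposed to compound for about 14 hours before viability readout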
H9c2 = test: cells; type: functional, cell-based; conditions: Rattus norvegicus, H9c2, Myocardium
HeLa = test: viability loss in HeLa cells – cell-based, 24 h, cherry-picked samples, cytotoxicity control, dose response (AID 504726); type: functional; conditions: Homo sapiens;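 note: potency for cytotoxicity as loss of luminescence signal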
Interleukin-8 [6] = biological target: T3, Interleukin-8 (Homo sapiens, UniProt P10145); test: SAR analysis of Tumor necrosis factor alpha (TNF-alpha) induced IL-8 secretion in MCF-7/NOD1 cells - Set 2. [Related pubchem assays (depositor defined):AID1575, AID2250, AID2260]; type: functional, cell-based
T3 sequence (P10145 whole entry): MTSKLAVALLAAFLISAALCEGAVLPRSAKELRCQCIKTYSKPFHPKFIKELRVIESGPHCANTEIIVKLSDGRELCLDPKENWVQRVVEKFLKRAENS

Interleukin-8 [7] = biological target: T3, Interleukin-8; test: SAR analysis of GM-Tri-DAP induced IL-8 secretion in MCF-7/NOD1 cells - Set 2. [Related pubchem assays (depositor defined):AID1575, AID1578, AID2333]; type: functional, cell-based
Tumor necrosis factor = Tumor necrosis factor (Homo sapiens, UniProt P01375); test: analog potency on TNFa NF-kB signaling – cell-based, revised, SAR follow-up (AID 2337); type: functional
[8] = biological target: T4, Nucleotide-binding oligomerization domain-containing protein 1 (Homo sapiens, UniProt Q9Y239); test: blockers of NOD1 pathway activity – revised, SAR follow-up (AID 2333); type: functional
T4 sequence (Q9Y239 whole entry): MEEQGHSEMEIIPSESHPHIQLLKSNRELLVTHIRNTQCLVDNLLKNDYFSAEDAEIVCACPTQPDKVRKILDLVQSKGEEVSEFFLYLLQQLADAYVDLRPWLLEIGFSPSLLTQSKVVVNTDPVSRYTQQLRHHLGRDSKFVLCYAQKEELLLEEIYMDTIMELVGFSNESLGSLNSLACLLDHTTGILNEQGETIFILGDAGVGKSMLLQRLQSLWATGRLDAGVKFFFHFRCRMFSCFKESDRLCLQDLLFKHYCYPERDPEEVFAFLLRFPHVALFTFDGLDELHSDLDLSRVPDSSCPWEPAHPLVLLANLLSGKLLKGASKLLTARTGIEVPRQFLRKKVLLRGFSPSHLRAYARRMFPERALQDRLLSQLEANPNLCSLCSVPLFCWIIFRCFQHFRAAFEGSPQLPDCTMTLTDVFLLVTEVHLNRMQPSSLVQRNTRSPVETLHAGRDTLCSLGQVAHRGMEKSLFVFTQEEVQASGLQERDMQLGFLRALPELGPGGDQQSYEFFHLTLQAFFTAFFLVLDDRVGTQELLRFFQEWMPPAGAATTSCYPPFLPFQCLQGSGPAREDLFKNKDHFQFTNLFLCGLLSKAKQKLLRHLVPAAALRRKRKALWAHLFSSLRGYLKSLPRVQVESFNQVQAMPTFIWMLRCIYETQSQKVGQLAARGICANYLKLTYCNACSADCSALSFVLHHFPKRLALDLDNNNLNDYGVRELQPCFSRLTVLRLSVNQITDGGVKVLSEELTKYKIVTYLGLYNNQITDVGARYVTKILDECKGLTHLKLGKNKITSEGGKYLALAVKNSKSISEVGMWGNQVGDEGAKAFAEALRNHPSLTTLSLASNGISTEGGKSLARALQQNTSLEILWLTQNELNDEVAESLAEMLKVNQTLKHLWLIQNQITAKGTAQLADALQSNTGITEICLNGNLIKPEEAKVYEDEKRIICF

HEK293 = test: cells; conditions: Homo sapiens
[9] = biological target: G-protein coupled receptor 55 (Homo sapiens, UniProt Q9Y2T6); test: inhibition of LPI-stimulated GPR55 beta-arrestin translocation – imaging, U2OS, beta-arrestin-GFP, LPI agonist, primary screen (AID 2013); type: functional;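 note: antagonist potency measured as reduced agonist-driven arrestin aggregation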
Hexokinase = biological target: T5, Hexokinase (Trypanosoma brucei, UniProt Q38C41); test: Confirmation assay for inhibitors of Trypanosoma brucei hexokinase 1-Analogue-first series. [Related pubchem assays (depositor defined):AID1430, AID1632, AID2516, AID2560, AID2579, AID2600, AID449725, AID492951]; type: functional
T5 sequence (Q38C41 whole entry): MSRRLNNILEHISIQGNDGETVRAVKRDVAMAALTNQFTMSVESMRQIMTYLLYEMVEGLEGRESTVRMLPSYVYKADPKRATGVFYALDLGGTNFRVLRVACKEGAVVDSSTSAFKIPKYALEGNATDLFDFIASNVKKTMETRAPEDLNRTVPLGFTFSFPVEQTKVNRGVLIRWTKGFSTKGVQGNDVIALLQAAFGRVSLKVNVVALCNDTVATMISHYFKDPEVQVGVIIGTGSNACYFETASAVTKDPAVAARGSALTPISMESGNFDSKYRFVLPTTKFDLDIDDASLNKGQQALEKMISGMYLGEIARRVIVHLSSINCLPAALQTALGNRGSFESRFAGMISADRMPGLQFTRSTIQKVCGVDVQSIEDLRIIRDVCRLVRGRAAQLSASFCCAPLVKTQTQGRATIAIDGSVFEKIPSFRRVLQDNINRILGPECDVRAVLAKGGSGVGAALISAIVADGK

[10] = biological target: Induced myeloid leukemia cell differentiation protein Mcl-1 (Homo sapiens, UniProt Q07820); type: functional
BJ = test: growth inhibition of engineered Ras-driven BJ cells – cell-based, alamar blue fluorescence, cherrypicked samples, dose response (AID 2631); type: functional; conditions: Homo sapiens;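 note: confirmatory dose-response assay in RAS-dependent BJ fibroblasts engineered with TERT, LT and ST, with cytotoxicity read by fluorescence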
Large T antigen = Large T antigen (Simian virus 40, UniProt P03070); type: functional, Betapolyomavirus macacae;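 note: Confirmatory-stage PubChem screen for compounds that inhibit SV40 T antigen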
[11] = viability of PTEN-deleted HCT116 cells – cell-based, HCT116 PTEN knockout, dose response (AID 1047); type: functional;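 note: HCT116 colon tumor cells with PTEN knocked out; cells exposed to compound for 60 hours before readout; potency for loss of cell viability measured by luminescence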
[12] = viability of HCT116 lacking mutant beta-catenin – cell-based, human colon tumor, dose response (AID 1045); type: functional;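 note: HCT116 colon tumor cells with beta catenin knocked out; cells exposed to compound for 60 hours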
[13] = biological target: T6, Neuropeptides B/W receptor type 1 (Homo sapiens, UniProt P48145); test: Fluorescence-based dose response cell-based high throughput screening assay to identify antagonists of the G-protein coupled receptor 7 (GPR7). [Related pubchem assays: 1952 (Screening assay (GPR7 antagonists).), 1880 (Summary AID.)]; type: functional
T6 sequence (P48145 whole entry): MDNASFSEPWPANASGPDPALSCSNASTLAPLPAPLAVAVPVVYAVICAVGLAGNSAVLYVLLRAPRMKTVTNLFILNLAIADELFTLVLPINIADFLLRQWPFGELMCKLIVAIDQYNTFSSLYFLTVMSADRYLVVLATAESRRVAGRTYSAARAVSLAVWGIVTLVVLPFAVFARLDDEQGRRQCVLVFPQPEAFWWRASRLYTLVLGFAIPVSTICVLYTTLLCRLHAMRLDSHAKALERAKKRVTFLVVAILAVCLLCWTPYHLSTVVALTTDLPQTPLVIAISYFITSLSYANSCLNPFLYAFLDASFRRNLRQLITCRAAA

[14] = biological target: Melanin-concentrating hormone receptor 1 (Homo sapiens, UniProt Q99705); test: Fluorescence-based counterscreen for antagonists of the G-protein coupled receptor 7 (GPR7): cell-based high throughput dose response assay to identify antagonists of the melanin-concentrating hormone receptor 1 (MCHR1).; type: functional
[15] = tested on: Streptococcus sp. 'group A'; test: Streptococcus pyogenes SK(-)GAS viability under kanamycin – luminescence, BacTiterGlo, confirmation, counter-screen for streptokinase expression inhibitor project, dose response (AID 1900); type: functional, organism-based
Streptokinase A = biological target: T7, Streptokinase A (Streptococcus pyogenes serotype M1, UniProt P10520); test: viability-normalized secreted streptokinase activity reduction – plasminogen activation absorbance, OD405, dose response (AID 1914); type: functional, Streptococcus pyogenes M1 GAS;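 note: secreted streptokinase activity via plasminogen activation per viability signal from cell pellet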
T7 sequence (P10520 whole entry): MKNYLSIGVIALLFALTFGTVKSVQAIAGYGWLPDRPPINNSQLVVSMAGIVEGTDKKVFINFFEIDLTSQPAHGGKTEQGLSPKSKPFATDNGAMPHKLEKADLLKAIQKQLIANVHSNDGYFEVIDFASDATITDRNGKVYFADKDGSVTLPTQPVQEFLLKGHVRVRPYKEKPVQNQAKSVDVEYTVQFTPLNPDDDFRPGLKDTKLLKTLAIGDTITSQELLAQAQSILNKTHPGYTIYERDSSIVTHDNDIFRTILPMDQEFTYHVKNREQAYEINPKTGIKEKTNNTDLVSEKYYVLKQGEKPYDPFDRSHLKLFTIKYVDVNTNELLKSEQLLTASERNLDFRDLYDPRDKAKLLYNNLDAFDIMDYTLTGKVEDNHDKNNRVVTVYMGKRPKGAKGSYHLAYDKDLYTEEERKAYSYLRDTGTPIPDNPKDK

Streptococcus = test: GAS UMAA2166 growth inhibition – luminescence, BacTiterGlo, counter-screen for streptokinase expression inhibitor project, dose response (AID 1915); type: functional, organism-based;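 note: potency for reduction of bacterial viability or growth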

Sequence of Procathepsin L (P07711 whole entry): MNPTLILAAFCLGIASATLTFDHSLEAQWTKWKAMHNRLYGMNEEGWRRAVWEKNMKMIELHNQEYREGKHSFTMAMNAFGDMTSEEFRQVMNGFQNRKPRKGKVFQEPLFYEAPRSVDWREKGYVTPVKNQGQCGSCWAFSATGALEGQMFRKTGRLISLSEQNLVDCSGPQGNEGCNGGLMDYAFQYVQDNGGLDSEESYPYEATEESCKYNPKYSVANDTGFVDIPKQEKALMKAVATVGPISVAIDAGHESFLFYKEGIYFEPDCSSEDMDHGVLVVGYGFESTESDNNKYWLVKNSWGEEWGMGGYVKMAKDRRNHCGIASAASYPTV
Sequence of Beta-galactosidase (Q8VNN2 whole entry): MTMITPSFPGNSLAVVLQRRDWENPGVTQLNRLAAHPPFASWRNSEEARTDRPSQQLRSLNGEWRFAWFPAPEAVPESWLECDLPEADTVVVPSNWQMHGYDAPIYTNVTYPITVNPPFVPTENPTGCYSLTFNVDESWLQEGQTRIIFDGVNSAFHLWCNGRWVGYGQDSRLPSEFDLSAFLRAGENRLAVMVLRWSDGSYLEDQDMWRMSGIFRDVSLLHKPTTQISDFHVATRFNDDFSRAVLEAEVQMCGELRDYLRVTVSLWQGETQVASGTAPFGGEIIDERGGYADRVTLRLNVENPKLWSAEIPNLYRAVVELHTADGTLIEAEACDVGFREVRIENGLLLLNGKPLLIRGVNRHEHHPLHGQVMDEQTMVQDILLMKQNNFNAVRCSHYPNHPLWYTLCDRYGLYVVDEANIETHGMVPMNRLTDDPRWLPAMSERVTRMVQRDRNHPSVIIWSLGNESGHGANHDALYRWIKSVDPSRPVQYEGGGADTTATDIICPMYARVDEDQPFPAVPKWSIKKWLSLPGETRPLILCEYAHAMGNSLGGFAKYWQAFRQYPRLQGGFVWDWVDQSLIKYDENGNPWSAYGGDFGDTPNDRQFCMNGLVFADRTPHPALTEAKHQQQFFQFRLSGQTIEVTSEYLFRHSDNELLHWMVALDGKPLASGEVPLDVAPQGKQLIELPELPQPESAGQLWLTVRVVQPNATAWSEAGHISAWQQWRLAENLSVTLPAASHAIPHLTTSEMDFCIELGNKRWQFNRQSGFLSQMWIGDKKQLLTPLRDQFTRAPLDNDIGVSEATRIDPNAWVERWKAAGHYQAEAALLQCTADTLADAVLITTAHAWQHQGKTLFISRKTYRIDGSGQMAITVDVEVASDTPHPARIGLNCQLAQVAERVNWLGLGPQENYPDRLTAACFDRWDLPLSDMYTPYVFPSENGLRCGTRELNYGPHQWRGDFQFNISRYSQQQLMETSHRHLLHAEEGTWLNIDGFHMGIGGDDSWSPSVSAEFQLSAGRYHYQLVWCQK
T1 sequence (P49327 whole entry): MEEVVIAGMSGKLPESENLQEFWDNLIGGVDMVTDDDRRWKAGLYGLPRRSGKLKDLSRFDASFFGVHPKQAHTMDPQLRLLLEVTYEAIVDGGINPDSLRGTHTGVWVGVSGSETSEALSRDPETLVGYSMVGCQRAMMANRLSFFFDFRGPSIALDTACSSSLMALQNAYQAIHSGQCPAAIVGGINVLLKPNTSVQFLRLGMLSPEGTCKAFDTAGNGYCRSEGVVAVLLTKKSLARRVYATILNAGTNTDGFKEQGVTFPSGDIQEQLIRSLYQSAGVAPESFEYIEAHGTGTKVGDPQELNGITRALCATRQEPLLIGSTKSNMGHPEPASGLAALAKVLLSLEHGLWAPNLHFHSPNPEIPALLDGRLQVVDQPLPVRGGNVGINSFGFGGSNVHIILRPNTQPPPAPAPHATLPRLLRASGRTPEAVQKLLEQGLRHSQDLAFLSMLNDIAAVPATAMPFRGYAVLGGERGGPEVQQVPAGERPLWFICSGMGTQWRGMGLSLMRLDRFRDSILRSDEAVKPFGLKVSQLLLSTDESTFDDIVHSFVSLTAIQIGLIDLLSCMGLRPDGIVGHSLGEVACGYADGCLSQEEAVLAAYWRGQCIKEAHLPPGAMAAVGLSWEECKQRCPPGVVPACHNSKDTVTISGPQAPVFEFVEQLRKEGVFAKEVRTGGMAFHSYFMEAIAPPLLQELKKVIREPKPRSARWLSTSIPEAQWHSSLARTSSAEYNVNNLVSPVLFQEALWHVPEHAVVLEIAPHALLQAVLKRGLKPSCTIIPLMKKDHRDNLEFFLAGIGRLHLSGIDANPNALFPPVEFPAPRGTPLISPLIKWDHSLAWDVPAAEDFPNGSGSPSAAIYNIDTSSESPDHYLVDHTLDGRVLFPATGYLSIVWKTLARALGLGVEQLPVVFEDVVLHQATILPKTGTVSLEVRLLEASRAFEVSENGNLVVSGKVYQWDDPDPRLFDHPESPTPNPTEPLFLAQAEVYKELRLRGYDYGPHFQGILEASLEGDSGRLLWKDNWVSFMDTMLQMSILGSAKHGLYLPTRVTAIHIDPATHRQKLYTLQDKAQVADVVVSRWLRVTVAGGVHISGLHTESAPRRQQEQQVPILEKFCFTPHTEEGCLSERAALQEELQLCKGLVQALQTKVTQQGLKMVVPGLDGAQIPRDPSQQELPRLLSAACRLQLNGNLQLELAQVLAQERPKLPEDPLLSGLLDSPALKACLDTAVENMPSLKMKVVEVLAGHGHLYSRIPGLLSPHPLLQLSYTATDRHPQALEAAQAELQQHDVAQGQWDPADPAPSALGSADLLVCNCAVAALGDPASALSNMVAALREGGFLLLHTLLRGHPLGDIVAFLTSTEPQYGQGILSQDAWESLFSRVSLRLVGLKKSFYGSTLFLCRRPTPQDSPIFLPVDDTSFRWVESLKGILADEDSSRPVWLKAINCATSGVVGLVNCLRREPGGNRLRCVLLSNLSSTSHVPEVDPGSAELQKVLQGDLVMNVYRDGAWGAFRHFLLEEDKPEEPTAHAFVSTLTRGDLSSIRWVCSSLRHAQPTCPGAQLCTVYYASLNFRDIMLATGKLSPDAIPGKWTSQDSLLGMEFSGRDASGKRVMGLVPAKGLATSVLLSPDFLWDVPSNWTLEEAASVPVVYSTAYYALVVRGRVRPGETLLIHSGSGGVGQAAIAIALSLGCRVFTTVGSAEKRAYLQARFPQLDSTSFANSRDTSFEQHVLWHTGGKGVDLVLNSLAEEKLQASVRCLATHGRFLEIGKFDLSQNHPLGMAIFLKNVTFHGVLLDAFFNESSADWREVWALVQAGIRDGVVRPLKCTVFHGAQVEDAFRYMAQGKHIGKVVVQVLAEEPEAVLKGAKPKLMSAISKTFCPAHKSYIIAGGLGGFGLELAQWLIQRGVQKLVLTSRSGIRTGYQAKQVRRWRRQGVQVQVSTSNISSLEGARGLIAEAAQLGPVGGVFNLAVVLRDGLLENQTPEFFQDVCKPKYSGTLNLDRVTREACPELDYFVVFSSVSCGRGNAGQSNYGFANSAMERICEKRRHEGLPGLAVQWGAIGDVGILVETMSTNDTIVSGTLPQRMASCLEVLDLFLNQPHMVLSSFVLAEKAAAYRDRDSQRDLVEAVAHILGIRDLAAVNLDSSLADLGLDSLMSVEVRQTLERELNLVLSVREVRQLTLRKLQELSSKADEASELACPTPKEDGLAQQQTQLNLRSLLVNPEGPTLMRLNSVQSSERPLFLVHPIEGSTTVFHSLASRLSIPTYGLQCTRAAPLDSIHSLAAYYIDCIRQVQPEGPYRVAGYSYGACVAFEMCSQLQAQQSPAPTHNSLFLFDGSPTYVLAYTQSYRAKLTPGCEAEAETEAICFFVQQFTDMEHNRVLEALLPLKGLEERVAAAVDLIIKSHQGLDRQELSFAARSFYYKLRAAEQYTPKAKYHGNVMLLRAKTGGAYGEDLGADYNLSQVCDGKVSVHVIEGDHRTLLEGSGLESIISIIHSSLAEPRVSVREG
Sequence of Melanin-concentrating hormone receptor 1 (Q99705 whole entry): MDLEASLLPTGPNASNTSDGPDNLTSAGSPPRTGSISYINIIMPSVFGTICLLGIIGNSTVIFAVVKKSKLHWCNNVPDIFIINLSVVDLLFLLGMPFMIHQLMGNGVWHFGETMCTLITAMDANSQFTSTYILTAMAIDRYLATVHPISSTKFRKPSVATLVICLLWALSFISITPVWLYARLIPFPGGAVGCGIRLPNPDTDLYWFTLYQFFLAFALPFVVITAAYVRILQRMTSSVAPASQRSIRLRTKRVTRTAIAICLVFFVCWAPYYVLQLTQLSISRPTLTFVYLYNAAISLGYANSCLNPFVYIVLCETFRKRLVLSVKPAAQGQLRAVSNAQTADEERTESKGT
Sequence of G-protein coupled receptor 55 (Q9Y2T6 whole entry): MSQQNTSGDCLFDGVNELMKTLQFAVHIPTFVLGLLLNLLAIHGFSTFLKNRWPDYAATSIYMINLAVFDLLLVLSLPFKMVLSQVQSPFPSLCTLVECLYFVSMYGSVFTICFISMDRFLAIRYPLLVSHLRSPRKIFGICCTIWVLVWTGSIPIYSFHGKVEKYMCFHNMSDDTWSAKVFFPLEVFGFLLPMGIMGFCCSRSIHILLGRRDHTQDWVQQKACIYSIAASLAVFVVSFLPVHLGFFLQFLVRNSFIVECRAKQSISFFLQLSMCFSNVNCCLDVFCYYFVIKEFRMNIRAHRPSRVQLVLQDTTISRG
Sequence of FAD-linked sulfhydryl oxidase ALR (P55789 whole entry): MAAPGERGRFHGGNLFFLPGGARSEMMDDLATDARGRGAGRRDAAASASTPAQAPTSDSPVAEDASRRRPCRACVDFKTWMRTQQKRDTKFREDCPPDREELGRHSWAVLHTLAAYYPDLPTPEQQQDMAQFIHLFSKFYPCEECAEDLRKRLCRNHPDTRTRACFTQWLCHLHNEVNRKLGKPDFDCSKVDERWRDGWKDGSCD
Sequence of Tumor necrosis factor (P01375 whole entry, the tested form may be a part): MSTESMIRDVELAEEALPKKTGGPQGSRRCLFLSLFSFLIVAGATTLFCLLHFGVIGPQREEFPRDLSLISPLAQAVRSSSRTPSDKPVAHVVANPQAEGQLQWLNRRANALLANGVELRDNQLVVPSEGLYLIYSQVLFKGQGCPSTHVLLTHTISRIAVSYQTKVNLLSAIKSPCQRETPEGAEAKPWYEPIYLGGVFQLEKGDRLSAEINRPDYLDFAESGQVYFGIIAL

## N#C/C(=C\c1cccc([N+](=O)[O-])c1)C(=O)NCc1ccc(Cl)cc1
Beta-galactosidase
  IC50: > 66.6 µM (inactive)
[1]
  AC50: 1.93 µM (active)
Fatty acid synthase [2]
  IC50: 4.48 µM (active)
Fatty acid synthase [3]
  IC50: 4.11 µM (active)

## NCCc1ccc(O)c(O)c1 [DOPAMINE HYDROCHLORIDE]
Aspartyl aminopeptidase
  IC50: 1.98 µM (active)
Procathepsin L
  IC50: > 59.6 µM (not active)
[4]
  AC50: 1.42 µM (active)

## COc1cc(NC(=O)c2ccco2)c(OC)cc1NC(=O)c1cc(OC)c(OC)c(OC)c1
[5]
  IC50: 41.3 µM (inactive)
H9c2
  IC50: 14.3 µM (active)

## Cc1noc(C)c1CSCC(=O)Nc1nc2c(F)cc(F)cc2s1
HeLa
  AC50: > 350 µM (inactive)

## Cc1nn(-c2nc3ccccc3[nH]2)c(N)c1-c1ccccc1
Beta-galactosidase
  IC50: > 66.6 µM (inactive)

## Cc1ccc(S(=O)(=O)n2c(=S)[nH]c3cc(C)ccc32)cc1
Interleukin-8 [6]
  IC50: > 25 µM (inactive)
Interleukin-8 [7]
  IC50: > 25 µM (inactive)
Tumor necrosis factor
  IC50: > 20 µM (inactive)
[8]
  IC50: > 20 µM (inactive)
HEK293
  IC50: > 20 µM (inactive)

## Fc1ccc(CSc2ncnc3scc(-c4ccccc4)c23)cc1
[9]
  IC50: 2.16 µM (active)

## O=C(Cn1sc2ccccc2c1=O)Nc1ccccc1Cl
Hexokinase
  IC50: 4.16 µM (active)

## COc1ccc(N(CC(=O)N2CCN(c3ccc(Cl)cc3)CC2)S(=O)(=O)c2c(C)n[nH]c2C)cc1
[5]
  IC50: > 80 µM (inactive)

## O=C(Cn1sc2ccccc2c1=O)Nc1cccc(Br)c1
Hexokinase
  IC50: > 25 µM (inactive)

## COc1ccc(C2=CC(=O)C=CC2=O)cc1
Aspartyl aminopeptidase
  IC50: 6.85 µM (active)
Procathepsin L
  IC50: > 59.6 µM (not active)
[10]
  IC50: 5.43 µM (active)
BJ
  EC50: > 133 µM (inactive)

## Cc1csc(NC(=O)NC2(C(F)(F)F)Oc3ccccc3O2)n1
Aspartyl aminopeptidase
  IC50: 2.02 µM (active)
Procathepsin L
  IC50: > 59.6 µM (not active)
Large T antigen
  IC50: 13.3 µM (active)
[11]
  EC50: 24.8 µM (active)
[12]
  EC50: 21.9 µM (active)

## CCC(C)(C(=O)NC1CCCCC1)N(Cc1ccco1)C(=O)c1ccc2c(c1)OCO2 (centres undefined)
[13]
  IC50: > 43.8 µM (not active)
[14]
  IC50: > 43.8 µM (not active)

## Cc1cccc(/C=N/NC(=O)c2ccccc2OCc2cccc(Br)c2)n1
[15]
  EC50: 11 µM (active)
Streptokinase A
  EC50: 16.1 µM (active)
Streptococcus
  EC50: 21.5 µM (active)
Beta-galactosidase
  IC50: > 66.6 µM (inactive)

## COc1ccc(NC(=O)Nc2ccccc2C(=O)O)cc1
Hexokinase
  IC50: > 25 µM (inactive)

## CCOC(=O)COc1c(Cl)cc(C2NC(S)=NC(c3ccccc3)=C2C(C)=O)cc1OC (centres undefined)
[13]
  IC50: > 43.8 µM (not active)
[14]
  IC50: > 43.8 µM (not active)

## Cc1csc(NC(=O)/C=C/c2ccc3c(c2)OCO3)n1
[5]
  IC50: > 80 µM (inactive)
